According to ChEMBL document CHEMBL1201862, “PubChem BioAssay data set” (2004):
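Assay format: 96-well plates, 48-hour exposure. The concentration for 50% growth inhibition is given as GI50.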 The source made the active and inactive calls. Cut-off read from the data, not from the text of the source: active = GI50 up to about 1.1 µM and inactive = higher.

Tests used:
Assay in all cases: inhibition of tumour cell growth, NCI panel, 48 h
[1] = system: MDA-N
[2] = system: MDA-MB-435
[3] = system: SK-MEL-2
[4] = system: RXF 393
[5] = system: SF-268
[6] = system: KM12
[7] = system: SN12C
[8] = system: RPMI-8226
[9] = system: SW-620
[10] = system: HCT-116
[11] = system: A549
[12] = system: SK-MEL-5
[13] = system: T47D
[14] = system: HL-60
[15] = system: K562
[16] = system: MOLT-4
[17] = system: SK-OV-3
[18] = system: UACC-62
[19] = system: LOX IMVI
[20] = system: CAKI-1
[21] = system: IGROV-1
[22] = system: CCRF-CEM
[23] = system: M14
[24] = system: SR
[25] = system: PC-3
[26] = system: HCT-15
[27] = system: HT-29
[28] = system: DU-145
[29] = system: SNB-19
[30] = system: OVCAR-8
[31] = system: NCI-H23
[32] = system: NCI-H460
[33] = system: UACC-257
[34] = system: COLO 205
[35] = system: U-251
[36] = system: HOP-62
[37] = system: NCI/ADR-RES
[38] = system: SF-295
[39] = system: TK-10
[40] = system: OVCAR-5
[41] = system: UO-31
[42] = system: ACHN
[43] = system: SNB-75
[44] = system: HCC 2998
[45] = system: 786-0
[46] = system: OVCAR-3
[47] = system: MCF7
[48] = system: SK-MEL-28
[49] = system: MDA-MB-231
[50] = system: NCI-H522
[51] = system: HOP-92
[52] = system: SF-539
[53] = system: OVCAR-4
[54] = system: Hs-578T
[55] = system: NCI-H226
[56] = system: A498
[57] = system: EKVX

CCOC(=O)/C=C/CC(C)(C)CCOC(C)=O
GI50 [1]: > 10 µM (inactive) | GI50 [2]: > 10 µM (inactive) | GI50 [3]: > 10 µM (inactive) | GI50 [4]: > 10 µM (inactive) | GI50 [5]: > 10 µM (inactive) | GI50 [6]: > 10 µM (inactive) | GI50 [7]: > 10 µM (inactive) | GI50 [8]: > 10 µM (inactive) | GI50 [9]: > 10 µM (inactive) | GI50 [10]: > 10 µM (inactive) | GI50 [11]: > 10 µM (inactive) | GI50 [12]: > 10 µM (inactive) | GI50 [13]: > 10 µM (inactive) | GI50 [14]: > 10 µM (inactive) | GI50 [15]: > 10 µM (inactive) | GI50 [16]: > 10 µM (inactive) | GI50 [17]: > 10 µM (inactive) | GI50 [18]: > 10 µM (inactive) | GI50 [19]: > 10 µM (inactive) | GI50 [20]: > 10 µM (inactive) | GI50 [21]: > 10 µM (inactive) | GI50 [22]: > 10 µM (inactive) | GI50 [23]: > 10 µM (inactive) | GI50 [24]: > 10 µM (inactive) | GI50 [25]: > 10 µM (inactive) | GI50 [26]: > 10 µM | GI50 [27]: > 10 µM (inactive) | GI50 [28]: > 10 µM (inactive) | GI50 [29]: > 10 µM (inactive) | GI50 [30]: > 10 µM (inactive) | GI50 [31]: > 10 µM (inactive) | GI50 [32]: > 10 µM (inactive) | GI50 [33]: > 10 µM (inactive) | GI50 [34]: > 10 µM (inactive) | GI50 [35]: > 10 µM (inactive) | GI50 [36]: > 10 µM (inactive) | GI50 [37]: > 10 µM (inactive) | GI50 [38]: > 10 µM (inactive) | GI50 [39]: > 10 µM (inactive) | GI50 [40]: > 10 µM (inactive) | GI50 [41]: > 10 µM (inactive) | GI50 [42]: > 10 µM (inactive) | GI50 [43]: > 10 µM (inactive) | GI50 [44]: > 10 µM (inactive) | GI50 [45]: > 10 µM (inactive) | GI50 [46]: > 10 µM (inactive) | GI50 [47]: > 10 µM (inactive) | GI50 [48]: > 10 µM (inactive) | GI50 [49]: > 10 µM (inactive) | GI50 [50]: > 10 µM (inactive) | GI50 [51]: > 10 µM (inactive) | GI50 [52]: > 10 µM (inactive) | GI50 [53]: > 10 µM (inactive) | GI50 [54]: > 10 µM (inactive) | GI50 [55]: > 10 µM (inactive)

COc1ccc(C=C2C(=O)NC(=S)NC2=O)c2ccccc12
GI50 [1]: 18.1 µM (inactive) | GI50 [2]: 27 µM (inactive) | GI50 [3]: 21.2 µM (inactive) | GI50 [4]: 20.7 µM (inactive) | GI50 [5]: 34.5 µM (inactive) | GI50 [6]: 44.3 µM (inactive) | GI50 [8]: 34.5 µM (inactive) | GI50 [9]: 33.4 µM (inactive) | GI50 [10]: 40 µM (inactive) | GI50 [12]: 29.1 µM (inactive) | GI50 [13]: 32.1 µM (inactive) | GI50 [14]: 24.3 µM (inactive) | GI50 [15]: 43.4 µM (inactive) | GI50 [16]: 83.2 µM (inactive) | GI50 [17]: 37.1 µM (inactive) | GI50 [19]: 34.4 µM (inactive) | GI50 [20]: 50.2 µM (inactive) | GI50 [56]: 0.224 µM (active) | GI50 [21]: 38.3 µM (inactive) | GI50 [22]: 32.4 µM (inactive) | GI50 [23]: 45 µM (inactive) | GI50 [24]: 42.7 µM (inactive) | GI50 [25]: 26.2 µM (inactive) | GI50 [26]: 33.1 µM | GI50 [27]: 28.2 µM (inactive) | GI50 [28]: 23.8 µM (inactive) | GI50 [30]: 33.4 µM (inactive) | GI50 [31]: 32.8 µM (inactive) | GI50 [32]: 12 µM (inactive) | GI50 [33]: 14.4 µM (inactive) | GI50 [35]: 27.6 µM (inactive) | GI50 [36]: 30.4 µM (inactive) | GI50 [37]: 26.7 µM (inactive) | GI50 [38]: 31.3 µM (inactive) | GI50 [39]: 7.6 µM (inactive) | GI50 [40]: 5.13 µM (inactive) | GI50 [41]: > 100 µM (inactive) | GI50 [42]: 97.5 µM (inactive) | GI50 [44]: 32.6 µM (inactive) | GI50 [45]: 47 µM (inactive) | GI50 [46]: 24 µM (inactive) | GI50 [47]: 22.5 µM (inactive) | GI50 [48]: 57.8 µM (inactive) | GI50 [49]: 39.9 µM (inactive) | GI50 [50]: 47.2 µM (inactive) | GI50 [51]: > 100 µM (inactive) | GI50 [52]: 22 µM (inactive) | GI50 [53]: > 100 µM (inactive) | GI50 [57]: 82 µM (inactive) | GI50 [54]: 28.2 µM (inactive) | GI50 [55]: 0.179 µM (active)
